Data as given in PubChem BioAssay AID179 (DTP/NCI, 2004).
Active and inactive are the calls of the source.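 The calls were made as follows: active = compounds giving half or more protection of infected cells from virus-caused growth loss, again on retest; inactive = the rest.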 Where a SMILES comes first, the peptide text is derived from it. [ ]: non-standard residue; d: D form. The star is where a group is joined. ξ: configuration not given here. Phe(4-NO2) = N[CH](Cc1ccc([N+](=O)[O-])cc1)C(=O)O; ξD = NC(CC(=O)O)C(=O)O; Boc = CC(C)(C)OC(=O)*; Aib = CC(C)(N)C(=O)O; OtBu = CC(C)(C)O*

Test system: CEM cells HIV-1 protection, formazan growth assay
Experiment: NCI AIDS Antiviral Assay
Conditions: for IC50: measured here: growth of uninfected CEM cells
Method in brief: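 Protection of CEM cells against HIV-1 measured as cell growth via soluble formazan read-out, with five concentrations tested on both infected and uninfected cells; failure to protect may reflect toxicity.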

| Structure (SMILES) | EC50 [µM] | IC50 [µM] | outcome |
| --- | --- | --- | --- |
| O=C(/C=C/c1cccs1)c1cccc(C(=O)/C=C/c2cccs2)n1 | > 200 | 110 | – |
| CCOC(=O)c1cccc2c(Nc3ccc(S(=O)(=O)Nc4cc(C)on4)cc3)c3ccccc3nc12 | > 200 | 25.1 | – |
| N#Cc1nc(/C=C/c2ccccc2)oc1N | > 501 | 112 | – |
| COc1ccc(C(=O)Sc2c(-c3ccccc3)c(=O)n(-c3ccccc3)c(=S)n2-c2ccccc2)cc1 | > 200 | 3.31 | – |
| O=c1[nH]n(CCc2ccccn2)c(=O)c2ccccc12 | > 200 | > 200 | – |
| O=C(O)CCCNS(=O)(=O)c1ccc2ccccc2c1 | – | – | inactive |
| CC1CSS(=O)O1 (stereo not drawn) | > 200 | > 200 | – |
| Cc1ccccc1NC(=O)Cc1csc(N/N=C2\NC(=O)/C(=C/c3cccc([N+](=O)[O-])c3)S2)n1 | > 200 | > 100 | – |
| O=C1C=C(Nc2ccccc2C(=O)CC(=O)C(=O)Nc2ccc(Cl)c(Cl)c2)c2ccccc2C1=O | > 26.9 | > 26.9 | – |
| CN1CC(c2ccccc2)N(CCCCN2CC(c3ccccc3)N(C)CC2c2ccccc2)CC1c1ccccc1 (stereo not drawn) | > 100 | 58.9 | – |
| COc1ccccc1/C=c1\[nH]c(=O)/c(=C/c2ccccc2OC)[nH]c1=O | > 28.2 | > 28.2 | – |
| C1=C(C2CCCC3[C@@H]4C[C@@H](CN23)C2CCCCN2C4)CCC2[C@H]3C[C@H](CN12)C1CCCCN1C3 (stereo partly drawn) | > 21.4 | > 21.4 | – |
| O=[N+]([O-])c1ccc(CSc2nncc3[nH]cnc23)cc1 | 31.6 | 63.1 | – |
| N#Cc1nc(Cc2ccccc2)oc1N | – | – | inactive |
| CC(=O)Nc1ccc(/C=N/NC(=S)NC2CN3CCC2CC3)cc1 (stereo not drawn) | > 200 | > 200 | – |
| O=C(O)c1c(O)c2cc(Cl)ccc2oc1=O | > 200 | 158 | – |
| O=C(CSc1nnc(Cc2ccccc2)o1)Nc1cccc(Cl)c1 | > 100 | 49 | – |
| Cc1cc(C)nc(NS(=O)(=O)c2ccc(Nc3c4ccccc4nc4c(C(=O)Nc5ccc(S(=O)(=O)Nc6cc(C)on6)cc5)ccc(Cl)c34)cc2)n1 | > 46.8 | 41.7 | – |
| CC1(C)O[C@H]2OC(CO)C(OS(C)(=O)=O)[C@H]2O1 (stereo partly drawn) | > 200 | > 200 | – |
| O=C1c2ccccc2C(=O)N1N1CC1c1ccccc1 (stereo not drawn) | > 200 | 138 | – |
| COc1ccc(Nc2nc(C#N)c(N)s2)cc1 | > 490 | 117 | – |

| Structure (SMILES) | EC50 [µM] | IC50 [µM] | outcome |
| --- | --- | --- | --- |
| CCc1cccc(CC)c1NC(=O)C1=C(C)NC(C)=C(C(=O)Nc2c(CC)cccc2CC)C1c1ccc2c(c1)OCO2 | > 44.7 | 23.4 | – |
| N#CC(c1ccccc1)N(CCc1ccccc1)C(=O)c1ccc(C(=O)N(CCc2ccccc2)C(C#N)c2ccccc2)cc1 (stereo not drawn) | > 200 | 28.2 | – |
| C=C1C(OC(=O)C(O)C(c2ccccc2)N(C)C)CC(OC(C)=O)[C@]2(C)C1C[C@@H]1CC(=O)C(C)=C([C@@H](OC(C)=O)C2OC(C)=O)C1(C)C (stereo partly drawn) | > 93.3 | > 93.3 | – |
| Cc1cc(Cl)cc(S)c1S(=O)(=O)Nc1nnc2ccc3ccccc3n12 | > 200 | 93.3 | – |
| COC(=S)SSC(=S)NCCNC(=S)SSC(=S)OC | > 200 | 9.55 | – |
| O=C(/C=C/c1ccccc1O)c1ccc([N+](=O)[O-])cc1 | > 95.5 | 53.7 | – |
| O=[N+]([O-])c1ccc(-c2cnc3ccccn23)cc1 | > 105 | > 105 | – |
| Cc1cc(=O)oc2c(CNC(Cc3ccccc3)C(=O)O)c(O)ccc12 (stereo not drawn) | > 200 | > 200 | – |
| O=C1C2CCc3cnn(-c4ccccc4)c3C2C(=O)N1c1ccccc1 (stereo not drawn) | > 200 | > 200 | – |
| Cc1cccc2c1Sc1ccccc1C2NC(=O)CN(C)C (stereo not drawn) | > 417 | 102 | – |
| Cc1ccc(NC(=O)CSc2nnc(Cc3ccccc3)o2)c(C)c1 | > 141 | 135 | – |
| Cc1ccc(C2SCC(=O)N2c2ccc(-c3ccc(-n4c(-c5ccccc5)nc5ccccc5c4=O)cc3)cc2)cc1 (stereo not drawn) | > 191 | 35.5 | – |
| CN[C@@H](C)[C@@H](NC)c1ccccc1 | – | – | inactive |
| Cc1ccccc1C1(O)c2ccccc2Oc2ccccc21 | > 200 | 13.8 | – |
| CC1(C)CC(=O)C(/C=N/C(=S)NC2CCCCC2)=C(O)C1 | > 100 | > 100 | – |
| CC(=O)CC(C)=O.CC(=O)CC(C)=O.CC(=O)CC(C)=O.[Mn] | > 200 | 25.7 | – |
| COc1cc2c(c(OC)c1)C1(CC(CC#N)C2)SCCS1 (stereo not drawn) | – | – | inactive |
| O=C1c2ccccc2-c2c1c(-c1ccccc1)c1n2C2(C(=O)c3ccccc3C2=O)C2C(=O)N(c3ccccc3)C(=O)C12 (stereo not drawn) | > 200 | 120 | – |
| COC(=O)C(C)(C)NC(=O)C(C)(C)NC(=O)C(CC(=O)OC(C)(C)C)NC(=O)OC(C)(C)C (stereo not drawn) (Boc-[ξD](OtBu)-[Aib]-[Aib]-OMe) | > 200 | > 200 | – |
| COC(=O)CCC(NC(=O)C(CCC(=O)OC)NC(=O)C(CCC(=O)OC)NC(=O)C(CCC(=O)OC)NC(=O)C(CCC(=O)OC)NC(=O)C(Cc1ccc([N+](=O)[O-])cc1)NC(=O)C(CCC(=O)OC)NC(=O)C(CCC(=O)OC)NC(=O)C(CCC(=O)OC)NC(=O)C(CCC(=O)OC)NC(=O)C(CCC(=O)OC)NC(C)=O)C(N)=O (stereo not drawn) (Ac-E(OMe)E(OMe)E(OMe)E(OMe)E(OMe)[Phe(4-NO2)]E(OMe)E(OMe)E(OMe)E(OMe)E(OMe)-NH2; configuration not given here) | > 100 | > 100 | – |
| OC1CSc2nc3ccccc3n2C1 (stereo not drawn) | > 200 | > 200 | – |

| Structure (SMILES) | EC50 [µM] | IC50 [µM] | outcome |
| --- | --- | --- | --- |
| C[N+](C)(C)C.[C-]#[O+].[C-]#[O+].[C-]#[O+].[C-]#[O+].[Cr].c1ccc(N=N[N-]c2ccccc2)cc1 | > 1.26 | > 1.26 | – |
| NC(=O)N1c2ccccc2C=Cc2ccccc21 | > 200 | > 200 | – |
| CCCCCCCC1(N=[N+]=[N-])C(=O)c2ccccc2N(C)C1=O (stereo not drawn) | 21.9 | 110 | – |
| COc1cccc(C2N3CCCCC3[C@@H]3c4[nH]c5ccccc5c4CCN23)c1OC (stereo partly drawn) | > 33.9 | > 33.9 | – |
| C[C@@]1(O)C2/C(=N/O)C3CC1(c1ccccc1)CC(/C3=N/O)C2c1ccccc1 (stereo partly drawn) | > 100 | > 100 | – |
| COC(=O)NC1=Nc2ccccc2C(=O)NN1 | > 200 | > 200 | – |
| Cc1ccccc1-c1c(N)nc(NC#N)nc1C(=O)Nc1ccccc1 | – | – | inactive |
| O=P1(Oc2ccccc2)OC[C@H]2S[C@H](c3ccccc3)C[C@H]2O1 (stereo partly drawn) | > 200 | > 200 | – |
| C/C(O)=C(/C=N\C(=S)Nc1ccc(Cl)c(Cl)c1)C(=O)Nc1ccccc1C | > 79.4 | 40.7 | – |
| Brc1ccc2c(ccc3nc4nnnn4nc32)c1 | > 17.4 | > 17.4 | – |
| Cc1nc2c(cc1C(=O)NN)c(=O)n(C)c(=O)n2C | > 200 | > 200 | – |
| CC1(C)O[C@@H](CP(c2ccc3ccccc3c2)c2ccc3ccccc3c2)[C@H](CP(c2ccc3ccccc3c2)c2ccc3ccccc3c2)O1 | > 200 | 129 | – |
| Cc1ccc(Cl)c(-c2nc3cc(Cl)c(Cl)cc3[nH]2)c1 | > 60.3 | > 60.3 | – |
| O=C1CN2C(Cl)(Cl)C2(c2ccccc2)c2cc(Cl)ccc2N1CC1CC1 (stereo not drawn) | > 200 | 11.7 | – |
| CC1=CC(=O)/C(=C/n2c(=S)[nH]c3ccc([N+](=O)[O-])cc32)C(=O)O1 | > 1000 | 178 | – |
| N#CCC1(c2ccc(Cl)cc2)NC(=O)c2ccccc21 (stereo not drawn) | > 200 | 117 | – |
| Cc1cc(=O)oc2c(C)c(O)ccc12 | > 138 | 97.7 | – |
| N/C(=N/O)C(F)(F)C(F)(F)C(F)(F)/C(N)=N\O | > 200 | > 200 | – |
| O=C(/C=C/c1ccccc1)Nc1ccccc1SCCCCl | > 200 | 9.55 | – |
| COc1cc([C@@H]2C3C(=O)c4ccccc4C3[C@@H](c3cc(OC)c(OC)c(OC)c3)C23Cc2ccccc2C3=O)cc(OC)c1OC (stereo partly drawn) | > 200 | 31.6 | – |
| O=S(=O)(O)c1cc[c]([Sb](=[O])([OH])[OH])cc1 | 0.661 | 398 | – |

| Structure (SMILES) | EC50 [µM] | IC50 [µM] | outcome |
| --- | --- | --- | --- |
| O=[N+]([O-])c1cc(S(=O)(=O)c2ccc(N(CCO)CCO)c([N+](=O)[O-])c2)ccc1N(CCO)CCO | > 200 | 35.5 | – |
| Cc1nc(Nc2ccccc2Cl)c2ccsc2n1 | – | – | inactive |
| Clc1ccc(CN2COc3c(ccc4cccnc34)C2)cc1 | > 200 | 1.82 | – |
| O=Nc1ccccc1 | > 200 | > 200 | – |
| COc1ccc(C2NCCc3c2[nH]c2ccccc32)cc1 (stereo not drawn) | – | – | inactive |
| CN[C@@H]1C[C@H]2O[C@@](C)([C@@H]1OC)n1c3ccccc3c3c4c(c5c6ccccc6n2c5c31)C(=O)N[C@@H]4O | > 38.9 | 0.0309 | – |
| CCOC(=O)c1cc(C2(OC)CCN(Cc3ccccc3)C2=O)c(-c2cc(C)no2)[nH]1 (stereo not drawn) | > 200 | 148 | – |
| O=C1C2CC=C3CCS(=O)C3C2C(=O)N1c1ccccc1 (stereo not drawn) | > 417 | > 417 | – |
| CC(C)(C)c1cc(-c2cc(C(C)(C)C)n(-c3ccccc3)n2)nn1-c1ccccc1 | > 200 | 89.1 | – |
| N#CC(C(=O)/C(=N/Nc1nc(=S)[nH]n1N)C(C#N)c1ccccc1)c1ccccc1 (stereo not drawn) | > 17.4 | > 17.4 | – |
| CC(C)(CO)C(O)C(=O)NCCCO (stereo not drawn) | > 200 | > 200 | – |
| COC(=O)[C@H]1[C@@H](C(C)C)O[C@@H](C(C)C)O[C@H]1C(F)(F)F | > 200 | > 200 | – |
| O=C1Oc2ccccc2C(=O)/C1=C/N1C(=O)CNC1=S | > 200 | > 200 | – |
| C=CCOc1ccc(C2(O)c3ccccc3C3=NCCCN32)cc1 (stereo not drawn) | > 200 | 148 | – |
| O=c1[nH]c(=O)c2[nH]c(Cl)nc2[nH]1 | > 28.2 | > 28.2 | – |
| NC(CCOCCP(=O)(O)CCOCCC(N)C(=O)O)C(=O)O (stereo not drawn) | > 200 | > 200 | – |
| COc1ccc(Cc2cnc(N)nc2N)cc1OC | – | – | inactive |
| O=C1OC(c2cccs2)Sc2ccccc21 (stereo not drawn) | > 200 | 195 | – |
| CC1=CC(=O)/C(=C/N2C(=O)CNC2=S)C(=O)O1 | > 200 | > 200 | – |
| N#Cc1ccc(C2Oc3ccc(Cl)cc3C=C2[N+](=O)[O-])cc1 (stereo not drawn) | > 200 | 0.977 | – |
